Test results taken from PMC9412861, “Understanding the pH Dependence of Supersaturation State—A Case Study of Telmisartan” (Pharmaceutics, 2022).

What was measured:
[1] = UV/pH titration in MeOH-water mixtures with Yasuda–Shedlovsky extrapolation; format: physicochemical; conditions: methanol-water mixtures, UV/pH titration in MeOH-water mixture, 25 °C, aqueous value by Yasuda–Shedlovsky extrapolation
Procedure: The cosolvent dissociation constants (psKa values) were determined in various MeOH-water mixtures between 8–34% (w/w) under the same experimental conditions as in aqueous medium. The aqueous pKa values were calculated from the measured psKa values in methanol-water solutions using the Yasuda–Shedlovsky extrapolation method. The Yasuda–Shedlovsky procedure is based on the linear relation between psKa and the dielectric constant (ε) of the cosolvent mixture:(1) psKa+log[H2O]=a/ε+b where ε is the dielectric constant, and log[H2O] is the molar water concentration of the given methanol-water mixture.

[2] = 1H NMR/pH titration (pKa determination); format: physicochemical; conditions: 5 v/v % D2O-95 v/v % H2O, NMR-pH titration, 25 °C, I = 0.15 M
Procedure: All NMR measurements were performed on a Varian 600 MHz spectrometer (Varian Inc., Palo Alto, CA, USA) with a dual 5 mm inverse-detection gradient probehead at 25 °C, constant ionic strength (I = 0.15 M) and using 5 v/v % D2O–95 v/v % H2O as solvent. The spectra were referenced to internal DSS (sodium 3-(trimethylsilyl)-1-propanesulfonate) as chemical shift reference. The pH of the samples (600 μL)were adjusted with concentrated HCl and NaOH and determined by in situ internal indicator molecules optimized for NMR [39, 40]. The concentration of telmisartan was below 1 mM during in the titration solution, due to its poor solubility, but all the peaks were still clearly visible. The water resonance was diminished by a double pulse field gradient spin echo sequence (number of transients = 16, number of points = 16,384, acquisition time = 3.33 s, relaxation delay = 1.5 s).
In order to obtain the acid dissociation constants from the chemical shifts–pH profiles, the software Origin Pro 8 (OriginLab Corp., Northampton, MA, USA) was used to perform non-linear regression with the following function:(2) δobs(pH)=δX^−+∑i=1nδHiX^i−1×10^logβi−i×pH/1+∑i=1n10^logβi−i×pH where δX^- is the chemical shift of the unprotonated ligand (X^−), δHiX^i-1 values stand for the chemical shifts of successively protonated species of X^−, n is the maximum number of protons that can bind to the unprotonated ligand, β is the cumulative macroconstant. The standard deviations of logβ values from the regression analyses were used to calculate the Gaussian propagation of uncertainty for the other equilibrium constants.

[3] = Thermodynamic (equilibrium) solubility, saturation shake-flask, in Prisma HT buffer; format: physicochemical; conditions: thermodynamic from solid
Procedure: (§1) The methods for thermodynamic solubility measurements can be found in Baka et al. (measured amount of TEL: 1 mg/mL, 37 °C, 6 h strirring, 18 h sedimentation). During the thermodynamic solubility measurements in Prisma buffers the concentration of the API was determined without filtering the solutions by the Rainbow Dynamic Dissolution Monitor instrument (Pion Inc., Billerica, MA, USA). In the case of solubility measurements in distilled water, the concentration of the API after filtration with PVDF membrane (0.22 µm) was determined by Jasco V-550 UV–vis spectrophotometer (Jasco Inc., Easton, MD, USA).

[4] = Thermodynamic (equilibrium) solubility, saturation shake-flask, in distilled water; format: physicochemical
Procedure: as §1

[5] = Kinetic solubility measurement (µDISS profiler); format: physicochemical
Procedure: The kinetic solubility measurements of TEL were determined using µDISS™ profiler (Pion Inc., Billerica, MA, USA). The method was described earlier by Kadar et al..

[6] = XRD characterization of solid phase isolated from solubility suspension; format: physicochemical; conditions: solid phase from solubility measurement, Prisma HT buffer
Procedure: X-ray powder diffraction (XRD) measurements were performed by X’pert Pro MPD X-ray diffractometer (PANalytical B.v., Armelo, The Netherlands).

[7] = ESI mass spectrometry of saturated solutions (aggregation); format: physicochemical; conditions: buffer-free saturated solution
Procedure: An ESI- triple quadrupole-MS/MS instrument (4000 Q TRAP) from Applied Biosystems (Foster City, CA, USA) was used for the MS and MS/MS measurements. Compounds were analyzed in the positive mode, and the settings were ion spray voltage 4500 V, ion source gas (N2) 16 arbitrary units (a.u.), curtain gas (N2) 10 a.u., declustering potential 20 V, and entrance potential 10 V. For MS/MS experiments, the settings were collision gas (N2) medium, and collision energy 51 V. Saturated samples were infused at a rate of 6 μL/min using Harvard Apparatus Syringe pump (Holliston, MA, USA). Analyst 1.4.2. software from Applied Biosystems (Foster City, CA, USA) was used for data acquisition and processing.

[8] = between pH 3–8; cited from earlier work
[9] = read-out: pKa1 ± SD (Carboxyl Group)
[10] = read-out: pKa2 ± SD (Middle Benzimidazole Ring)
[11] = read-out: pKa3 ± SD (Terminal Benzimidazole Ring)

## CCCc1nc2c(C)cc(-c3nc4ccccc4n3C)cc2n1Cc1ccc(-c2ccccc2C(=O)O)cc1 [Telmisartan, telmisartan]
[1]; [9]
  pKa: 3.03 ± 0.06
[1]; [10]
  pKa: 4.19 ± 0.07
[1]; [11]
  pKa: 6.14 ± 0.1
[2]; [9]
  pKa: 3.21 ± 0.14
[2]; [10]
  pKa: 4.28 ± 0.07
[2]; [11]
  pKa: 6.08 ± 0.04
[3]; aqueous buffer, pH 2.15, 37 °C, read-out: Equilibrium solubility S ± SD
  solubility thermodynamic at 6 h: 119 ± 11.8 µg/mL
[3]; aqueous buffer, pH 2.15, 37 °C, read-out: Equilibrium solubility logS ± SD (converted)
  solubility thermodynamic at 6 h: 229 µM
[3]; aqueous buffer, pH 3.08, 37 °C, read-out: Equilibrium solubility S ± SD
  solubility thermodynamic at 6 h: 13.1 ± 1.73 µg/mL
[3]; aqueous buffer, pH 3.08, 37 °C, read-out: Equilibrium solubility logS ± SD (converted)
  solubility thermodynamic at 6 h: 25.1 µM
[3]; aqueous buffer, pH 3.82, 37 °C, read-out: Equilibrium solubility S ± SD
  solubility thermodynamic at 6 h: 3.62 ± 0.59 µg/mL
[3]; aqueous buffer, pH 3.82, 37 °C, read-out: Equilibrium solubility logS ± SD (converted)
  solubility thermodynamic at 6 h: 7.08 µM
[3]; aqueous buffer, pH 7.88, 37 °C, read-out: Equilibrium solubility S ± SD
  solubility thermodynamic at 6 h: 11.5 ± 0.26 µg/mL
[3]; aqueous buffer, pH 7.88, 37 °C, read-out: Equilibrium solubility logS ± SD (converted)
  solubility thermodynamic at 6 h: 22.4 µM
[3]; aqueous buffer, pH 9.00, 37 °C, read-out: Equilibrium solubility S ± SD
  solubility thermodynamic at 6 h: 130 ± 2.73 µg/mL
[3]; aqueous buffer, pH 9.00, 37 °C, read-out: Equilibrium solubility logS ± SD (converted)
  solubility thermodynamic at 6 h: 251 µM
[3]; aqueous buffer, pH 9.79, 37 °C, read-out: Equilibrium solubility S ± SD
  solubility thermodynamic at 6 h: 1470 ± 255 µg/mL
[3]; aqueous buffer, pH 9.79, 37 °C, read-out: Equilibrium solubility logS ± SD (converted)
  solubility thermodynamic at 6 h: 2880 µM
[3]; aqueous buffer, pH 11.74, 37 °C, read-out: Equilibrium solubility S ± SD
  solubility thermodynamic at 6 h: 2250 ± 145 µg/mL
[3]; aqueous buffer, pH 11.74, 37 °C, read-out: Equilibrium solubility logS ± SD (converted)
  solubility thermodynamic at 6 h: 4370 µM
[3]; pH 1.6, aqueous buffer, pH 1.60, 37 °C, read-out: Equilibrium solubility S ± SD
  solubility thermodynamic at 6 h: 150 ± 38 µg/mL
[3]; pH 1.6, aqueous buffer, pH 1.60, 37 °C, read-out: Equilibrium solubility logS ± SD (converted)
  solubility thermodynamic at 6 h: 288 µM
[3]; pH 2.5, aqueous buffer, pH 2.50, 37 °C, read-out: Equilibrium solubility S ± SD
  solubility thermodynamic at 6 h: 17 ± 0.72 µg/mL
[3]; pH 2.5, aqueous buffer, pH 2.50, 37 °C, read-out: Equilibrium solubility logS ± SD (converted)
  solubility thermodynamic at 6 h: 47.9 µM
[3]; pH 6.5, aqueous buffer, pH 6.50, 37 °C, read-out: Equilibrium solubility S ± SD
  solubility thermodynamic at 6 h: 0.79 ± 0.16 µg/mL
[3]; pH 6.5, aqueous buffer, pH 6.50, 37 °C, read-out: Equilibrium solubility logS ± SD (converted)
  solubility thermodynamic at 6 h: 1.58 µM
[3]; pH 9.4, aqueous buffer, pH 9.40, 37 °C, read-out: Equilibrium solubility S ± SD
  solubility thermodynamic at 6 h: 275 ± 9.4 µg/mL
[3]; pH 9.4, aqueous buffer, pH 9.40, 37 °C, read-out: Equilibrium solubility logS ± SD (converted)
  solubility thermodynamic at 6 h: 537 µM
[4]; pH 2.66, 37 °C, read-out: Equilibrium solubility S ± SD
  solubility thermodynamic at 6 h: 10.8 ± 0.53 µg/mL
[4]; pH 2.66, 37 °C, read-out: Equilibrium solubility logS ± SD (converted)
  solubility thermodynamic at 6 h: 20.9 µM
[4]; thermodynamic from solid, pH 2.16, 37 °C, read-out: Equilibrium solubility S ± SD
  solubility thermodynamic at 6 h: 148 ± 5.48 µg/mL
[4]; thermodynamic from solid, pH 2.16, 37 °C, read-out: Equilibrium solubility logS ± SD (converted)
  solubility thermodynamic at 6 h: 288 µM
[4]; thermodynamic from solid, pH 3.08, 37 °C, read-out: Equilibrium solubility S ± SD
  solubility thermodynamic at 6 h: 3.4 ± 0.49 µg/mL
[4]; thermodynamic from solid, pH 3.08, 37 °C, read-out: Equilibrium solubility logS ± SD (converted)
  solubility thermodynamic at 6 h: 6.61 µM
[4]; thermodynamic from solid, pH 3.98, 37 °C, read-out: Equilibrium solubility S ± SD
  solubility thermodynamic at 6 h: 0.36 ± 0.12 µg/mL
[4]; thermodynamic from solid, pH 3.98, 37 °C, read-out: Equilibrium solubility logS ± SD (converted)
  solubility thermodynamic at 6 h: 0.692 µM
[4]; thermodynamic from solid, pH 7.22, 37 °C, read-out: Equilibrium solubility S ± SD
  solubility thermodynamic at 6 h: 3.65 ± 0.11 µg/mL
[4]; thermodynamic from solid, pH 7.22, 37 °C, read-out: Equilibrium solubility logS ± SD (converted)
  solubility thermodynamic at 6 h: 7.08 µM
[4]; thermodynamic from solid, pH 7.4, 37 °C, read-out: Equilibrium solubility S ± SD
  solubility thermodynamic at 6 h: 13.8 ± 2.81 µg/mL
[4]; thermodynamic from solid, pH 7.4, 37 °C, read-out: Equilibrium solubility logS ± SD (converted)
  solubility thermodynamic at 6 h: 26.9 µM
[5]; Prisma HT buffer, 37 °C
  pH range of minimal kinetic solubility: 3–6
[5]; based on kinetic solubility results
  pH range in which a supersaturated solution is formed: 3–8
[5]; more acidic pHs (below pH 3)
  difference between thermodynamic and kinetic solubility: no significant difference
[5]; pH = 3 to pH = 8
  difference between thermodynamic and kinetic solubility: near two-magnitude difference
[6]; pH 1.60
  XRD Characterization: Crystalline
[6]; pH 2.15
  XRD Characterization: Crystalline
[6]; pH 2.50
  XRD Characterization: Crystalline
[6]; pH 3.08
  XRD Characterization: Crystalline
[6]; pH 3.82
  XRD Characterization: Crystalline
[6]; pH 6.50
  XRD Characterization: Crystalline
[6]; pH 7.88
  XRD Characterization: Crystalline
[6]; pH 9.40
  XRD Characterization: amorphous background
[6]; pH 9.79
  XRD Characterization: amorphous background
[6]; pH 11.74
  XRD Characterization: Amorphous
[7]; higher pHs (e.g., pH 10)
  dimerization in solution by MS: no dimerization could be observed
[7]; pH range 3–8
  dimerization in solution by MS: peak corresponding to the dimeric structure could be detected
[8]
  solubility: low solubility
